Laboratory results from patent US20150087619A1, “METHOD OF MITIGATING VIRUS ASSOCIATED END-ORGAN DAMAGE” (CHIMERIX, INC., priority 2012, published 2015).
pEC50: −log10 of the molar value. Values joined by “and” are separate entries in the source; they are usually repeats but may differ in a detail not shown here. Equal values may be shown once. “Also recorded” adds a separate entry of the source.

Legend:
AdV = test: In vitro antiviral activity in cell culture; format: cell-based
EBV [1] = test: HDP-CDV given to patients with viral infections, virology data; conditions: 4 mg/kg BIW
CMV = test: as above; conditions: patient
clinical = conditions: male, human, plasma, 40 mg
EBV [2] = test: In vitro antiviral activity in cell culture; format: cell-based; conditions: human gammaherpesvirus 4
BKV [3] = test: Study HDP-CDV-201: hematuria and BKV bladder events; format: in vivo, human
Method: A multicenter, randomized, double-blind, placebo-controlled, dose-escalation study of safety, tolerability, and ability of HDP-CDV to prevent or control […], and EBV infection and associated disorders was conducted. During enrollment of patients in the study, urine samples of candidate patients were routinely screened for BKV. Plasma was collected from patients who tested positive for BKV viruria in urine, and AdV, EBV and BKV level in the plasma was evaluated.

[4] = Phase 1 comparative bioavailability (solution vs tablet) and food effect study; conditions: for Plasma HDP-CDV CL/F / Plasma HDP-CDV Tmax / Plasma HDP-CDV AUC0-inf / Plasma HDP-CDV AUC0-last / Plasma HDP-CDV Cmax / Plasma HDP-CDV t1/2: single oral dose; for Plasma HDP-CDV CL/F / Plasma HDP-CDV Tmax / Plasma HDP-CDV AUC0-inf / Plasma HDP-CDV AUC0-last / Plasma HDP-CDV Cmax / Plasma HDP-CDV t1/2 / Plasma Cidofovir CL/F: healthy volunteers; for Plasma HDP-CDV CL/F / Plasma HDP-CDV AUC0-inf / Plasma HDP-CDV AUC0-last / Plasma HDP-CDV Cmax / Plasma HDP-CDV t1/2 / Plasma Cidofovir CL/F: mean; for Plasma HDP-CDV Tmax: median;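 for all read-outs here: plasma levels quantified by validated LC-MS/MS, LLOQ 0.1 ng/mL for HDP-CDV and 0.5 ng/mL for CDV, crossover design with 14-day washout between single doses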
BKV [5] = test: HDP-CDV given to patients with viral infections, virology data; conditions: patient
HSV-1 = test: In vitro antiviral activity in cell culture; format: cell-based; conditions: Human alphaherpesvirus 1; HSV-1, cell culture
[6] = 40 mg tablet, fed (high fat breakfast)

CCCCCCCCCCCCCCCCOCCCOP(=O)(O)COC(CO)Cn1ccc(N)nc1=O (stereo not drawn) [HDP-CDV]
pEC50 (AdV): 7.70 | decrease in EBV levels in blood (EBV [1]; patient 6 months, 6 kg, EBV associated PTLD, four days after starting): There was approximately a 5-fold decrease | blood EBV viral load after one month of therapy (EBV [1]; patient 22 months, 13.8 kg, from >50,000,000 copies/mL): copies/mL to 100,000 copies/mL over one | replication of EBV as measured by plasma PCR (EBV [1]; patient, 27 kg, EBV-associated PTLD): There is no evidence of on-going | decrease in CMV viremia (CMV; 61 kg, GCV res (UL97), 3 mg/kg BIW, first month of dosing): GCV res (UL97). There was a 1.9 log10 | CMV viremia 4 days after the third dose (CMV; 63.3 kg, refractory CMV, UL97 and UL54 mutations, 4 mg/kg BIW, from 9200 copies/mL): first day of dosing to 1000 copies/mL 4 | CMV after dosing interruption (CMV; 63.3 kg, refractory CMV, 4 mg/kg BIW): interrupted resulting in virologic rebound. | CMV suppression during therapy (CMV; 69 kg, 2 mg/kg, 1 mg/kg second dose, then 2 mg/kg BIW, after discontinuation of ganciclovir): CMV suppression continued during HDP- | CMV viremia during therapy (CMV; 72.8 kg, post lung transplant CMV, 3 mg/kg BIW): There was no change in CMV viremia | AUC(0-inf) (clinical; oral): 476 ng·h/mL | AUC(0-t) (clinical; oral): 457 ng·h/mL | Cmax (clinical; oral): 70.5 ng/mL | AUC(0-inf) (clinical; po): 574 ng·h/mL | AUC(0-t) (clinical; po): 549 ng·h/mL | Cmax (clinical; po): 77.7 ng/mL | Vd/F (clinical; po): 831 L | half-life (clinical; po): 8.06 h | pEC50 (EBV [2]): 7.40 | developed Hem+ during the Study (BKV [3]; BK viruria positive (BKU+) at Baseline, 4 of 77, placebo 33%): 5% | clinical bladder adverse events related to BKV (BKV [3]; BKU+ subjects at Baseline (6/77), placebo 12.5-13%): 8% and 7.8% | Hem+ (BKV [3]; BKU− subjects): 4% | Hem+ vs placebo (BKV [3]; BKV viruria negative (BKU−) at baseline, FIG. 1): no significant difference | BKV associated adverse bladder events (BKV [3]; HDP-CDV treatment vs placebo): decreased frequency; also recorded: decreased the incidence; also recorded: beneficial effect | rate of confirmed blood positive urinalyses relative to placebo-treated subjects (BKV [3]; HDP-CDV- compared to placebo-treated): ⅙^th | Hematuria (Hem+) vs placebo (BKV [3]; HSCT patients with BKV at base line (BKU+), FIG. 1): prevented Hematuria; also recorded: reduces hematuria | BK-related bladder events (cystitis or blood in urine) (BKV [3]; all HDP-CDV subjects (6/171), placebo 5.1%): 3.5% | rate of blood positive urinalyses during the treatment period (BKV [3]; all HDP-CDV-treated subjects (8/171), placebo 15.2%): 4.7% | subjects with BK-related bladder AEs (BKV [3]; received 40 mg QW): 2 | microscopic hematuria (BKV [3]; subjects shedding BKV in their urine): reduction in microscopic hematuria | BK-related bladder AEs (BKV [3]; subjects who received doses >100 mg QW (4/171)): 2.3% | difference between pooled HDP-CDV- and placebo-treated groups in rates of confirmed blood positive urinalyses (BKV [3]; subjects with BKV viruria during the treatment period): ~6 fold | rate of confirmed blood positive urinalyses (BKV [3]; subjects with BKV viruria during the treatment period (4/171), placebo 13.6%): 2.3% | rate of blood positive urinalyses (BKV [3]; subjects without BK viruria, placebo 1.7%): 2.4% | Plasma HDP-CDV CL/F ([4]; 40 mg solution, fasted): 77.5 L/h | Plasma HDP-CDV Tmax ([4]; 40 mg solution, fasted): 2.00 h | Plasma HDP-CDV AUC0-inf ([4]; 40 mg tablet, fasted): 496 ng·h/mL | Plasma HDP-CDV AUC0-last ([4]; 40 mg tablet, fasted): 473 ng·h/mL | Plasma HDP-CDV CL/F ([4]; 40 mg tablet, fasted): 86.1 L/h | Plasma HDP-CDV Cmax ([4]; 40 mg tablet, fasted): 73.9 ng/mL | Plasma HDP-CDV t1/2 ([4]; 40 mg tablet, fasted): 7.52 h | Plasma HDP-CDV Tmax ([4]; 40 mg tablet, fasted): 3.00 h | Plasma HDP-CDV AUC0-inf [4, 6]: 367 ng·h/mL | Plasma HDP-CDV AUC0-last [4, 6]: 340 ng·h/mL | Plasma HDP-CDV CL/F [4, 6]: 119 L/h | Plasma HDP-CDV Cmax [4, 6]: 39.4 ng/mL | Plasma HDP-CDV t1/2 [4, 6]: 6.65 h | Plasma HDP-CDV Tmax [4, 6]: 6.00 h | food effect on HDP-CDV absorption and bioavailability ([4]; 40 mg tablet, high fat meal vs fasted): reduced peak concentration and delayed Tmax; also recorded: significant food effect | Plasma Cidofovir CL/F ([4]; after 40 mg HDP-CDV solution, fasted): 40.8 L/h | Plasma Cidofovir CL/F ([4]; after 40 mg HDP-CDV tablet, fasted): 44.3 L/h | Plasma Cidofovir CL/F ([4]; after 40 mg HDP-CDV tablet, fed): 46.9 L/h | food effect on CDV concentrations ([4]; after 40 mg HDP-CDV tablet, high fat meal vs fasted): unaffected by the presence of food; also recorded: no food effect | HDP-CDV Ln(AUCinf) Test Geometric LSM ([4]; fed tablet (test), TOST): 343.5310 ng·h/mL | HDP-CDV Ln(AUClast) Test Geometric LSM ([4]; fed tablet (test), TOST): 323.8453 ng·h/mL | HDP-CDV Ln(Cmax) Test Geometric LSM ([4]; fed tablet (test), TOST): 37.0360 ng/mL | HDP-CDV Ln(AUCinf) Ratio [% Ref] ([4]; in vivo): 72.17 % Ref | HDP-CDV Ln(AUClast) Ratio [% Ref] ([4]; in vivo): 70.89 % Ref | HDP-CDV Ln(Cmax) Ratio [% Ref] ([4]; in vivo): 52.56 % Ref | absorption following a single oral administration ([4]; solution and tablet formulation, 40 mg): readily absorbed | response of BKV in urine (BKV [5]; 57.9 kg, 2 mg/kg BIW): CMV viremia but no sustained response of | BK viruria during administration (BKV [5]; 69 kg, BKV hemorrhagic cystitis, 2 mg/kg, 1 mg/kg second dose, then 2 mg/kg BIW): ganciclovir. BK viruria decreased during | BKV in urine (BKV [5]; 108 kg, 3 mg/kg first dose, 2 mg/kg BIW thereafter, by a similar amount (almost 2 log10)): rose | pEC50 (HSV-1): 7.22
